This test has as its target T1, human V1aR (Homo sapiens, UniProt P37288).
T1 construct: expressed in transfected cells
As to the kind of experiment: Agonist activity at vasopressin V1a receptors, cell-based FLIPR calcium assay. The settings on record: for Emax: read-out: Efficacy Avg. (%). In short, it runs like this: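 HEK Flp-In cells stably expressing human V1aR were loaded with Calcium 4 dye plus 2.5 mM probenecid for 1 h at 37 °C, then given half-log compound concentrations (final 0.1% DMSO) on FLIPR Tetra.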

Starred links: 1 amine or outer side, 2 acyl side, 3 side chain; linkers in the order of their positions; H or OH if unused. Positions of bridges follow the written chain, without caps; N, C: chain ends. Non-standard residues stand in square brackets, D forms with d. Residues, ends and D or L forms follow the SMILES beside them. Chains are numbered I, II in the order given. *: point of attachment. X2 = N=C(N)N[C@@H](CCCCN[*:1])C(=O)[*:2]; isoGln = NC(=O)[C@H](CCC(=O)[*:2])N[*:1]; d(εLys) = N[C@H](CCCCN[*:1])C(=O)[*:2]; εLys = N[C@@H](CCCCN[*:1])C(=O)[*:2]; Orn = NCCC[C@H](N)C(=O)O; Dab = NCC[C@H](N)C(=O)O; PhAc = O=C(Cc1ccccc1)*; Ava = NCCCCC(=O)O

Drawing on patent US20160122386A1, “V1A RECEPTOR AGONISTS” (FERRING B.V., priority 2014, published 2016), this text covers EC50 and Emax for four compounds.

T1 sequence (P37288 whole entry): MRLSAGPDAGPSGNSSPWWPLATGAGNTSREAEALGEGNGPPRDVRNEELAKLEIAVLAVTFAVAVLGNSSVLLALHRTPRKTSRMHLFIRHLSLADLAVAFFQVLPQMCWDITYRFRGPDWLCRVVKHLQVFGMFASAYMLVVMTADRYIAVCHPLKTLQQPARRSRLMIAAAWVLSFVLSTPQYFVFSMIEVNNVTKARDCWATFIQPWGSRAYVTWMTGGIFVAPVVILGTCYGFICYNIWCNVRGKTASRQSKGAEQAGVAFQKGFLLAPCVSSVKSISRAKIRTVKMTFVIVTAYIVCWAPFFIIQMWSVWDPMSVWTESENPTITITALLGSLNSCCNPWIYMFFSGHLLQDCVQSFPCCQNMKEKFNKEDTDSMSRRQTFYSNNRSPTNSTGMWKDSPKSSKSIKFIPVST

By EC50 is commonly meant the concentration at which the effect is half-maximal. Take `CC[C@H](C)[C@@H]1NC(=O)[C@H](Cc2ccccc2)NC(=O)[C@@H](N)CSSC[C@@H](C(=O)N2CCC[C@H]2C(=O)N[C@@H](CCCNCCCCCNC(=O)CC[C@H](NC(=O)[C@H](CCCNC(=N)N)NC(=O)[C@@H]2CCCN2C(=O)[C@H](CCCCN)NC(=O)[C@H](CC(N)=O)NC(=O)[C@H](CCC(N)=O)NC(=O)[C@H](Cc2ccccc2)NC(=O)[C@@H](Cc2ccc(OC)cc2)NC(=O)Cc2ccccc2)C(N)=O)C(=O)NCC(N)=O)NC(=O)[C@H](CC(N)=O)NC(=O)[C@H](CCC(N)=O)NC1=O` [Compound 12]: the EC50 came out at 2.3 nM and the Emax came out at 39%.

With `CC[C@H](C)[C@@H]1NC(=O)[C@H](Cc2ccccc2)NC(=O)[C@@H](N)CSSC[C@@H](C(=O)N2CCC[C@H]2C(=O)N[C@@H](CCNC(=O)[C@@H](N)CCCCNC(=O)CCCCNC(=O)CC[C@H](NC(=O)[C@H](CCCNC(=N)N)NC(=O)[C@@H]2CCCN2C(=O)[C@H](C)NC(=O)[C@H](CC(N)=O)NC(=O)[C@H](CCC(N)=O)NC(=O)[C@H](Cc2ccccc2)NC(=O)[C@@H](Cc2ccc(OC)cc2)NC(=O)Cc2ccccc2)C(N)=O)C(=O)NCC(N)=O)NC(=O)[C@H](CC(N)=O)NC(=O)[C@H](CCC(N)=O)NC1=O` [Compound 37] (I: H-CFIQNCP[Dab]G-NH2 / II: PhAc-[dY](Me)FQNAPR[isoGln][Ava][εLys]; disulfide I:1-I:6; amide I:8-II:C), the EC50 turned out to be 1.3 nM and the Emax amounted to 44%.

In the case of `CC[C@H](C)[C@@H]1NC(=O)[C@H](Cc2ccccc2)NC(=O)[C@@H](N)CSSC[C@@H](C(=O)N2CCC[C@H]2C(=O)N[C@@H](CCCNC(=O)[C@H](CCCCNC(=O)CC[C@H](NC(=O)[C@H](CCCNC(=N)N)NC(=O)[C@@H]2CCCN2C(=O)[C@H](CCCNC(=N)N)NC(=O)[C@H](CC(N)=O)NC(=O)[C@H](CCC(N)=O)NC(=O)[C@H](Cc2ccccc2)NC(=O)[C@@H](Cc2ccc(OC)cc2)NC(=O)Cc2ccccc2)C(N)=O)NC(=N)N)C(=O)NCC(N)=O)NC(=O)[C@H](CC(N)=O)NC(=O)[C@H](CCC(N)=O)NC1=O` [Compound 26] (I: H-CFIQNCP[Orn]G-NH2 / II: PhAc-[dY](Me)FQNRPR[isoGln][X2]; disulfide I:1-I:6; amide I:8-II:C), the EC50 amounted to 0.93 nM and the Emax came out at 32%.

On to `CC[C@H](C)[C@@H]1NC(=O)[C@H](Cc2ccccc2)NC(=O)[C@@H](N)CSSC[C@@H](C(=O)N2CCC[C@H]2C(=O)N[C@@H](CCNC(=O)[C@H](N)CCCCNC(=O)CC[C@H](NC(=O)[C@H](CCCNC(=N)N)NC(=O)[C@@H]2CCCN2C(=O)[C@H](C)NC(=O)[C@H](CC(N)=O)NC(=O)[C@H](CCC(N)=O)NC(=O)[C@H](Cc2ccccc2)NC(=O)[C@@H](Cc2ccc(OC)cc2)NC(=O)Cc2ccccc2)C(N)=O)C(=O)NCC(N)=O)NC(=O)[C@H](CC(N)=O)NC(=O)[C@H](CCC(N)=O)NC1=O` [Compound 39] (I: H-CFIQNCP[Dab]G-NH2 / II: PhAc-[dY](Me)FQNAPR[isoGln][d(εLys)]; disulfide I:1-I:6; amide I:8-II:C), for which the 50% effective concentration (EC50) amounted to 1.8 nM and the Emax was determined as 48%.
